Source: PubChem BioAssay AID248 (DTP/NCI, 2004)
Inconclusive results and toxic doses are left out. No stated cut-off is given here; in the data, active means T/C of 150% or more; inactive means T/C below 125%.

Tested on: L1210 leukemia ip in BDF1 mice, survival T/C
Experiment: NCI In Vivo Anticancer Drug Screen. Data for tumor model L1210 Leukemia (intraperitoneal) in B6D2F1 (BDF1) mice
Settings: endpoint: mean survival time, higher = longer survival
Summary of the method: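 In this screen, tumor-bearing mice given compound are compared to those given vehicle, and their survival values are reported as a treated-to-control quotient.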

[1] = dose: 6.25 mg/kg/injection, schedule: Q01DX009 (ip), vehicle: saline with Tween-80
[2] = dose: 12.5 mg/kg/injection, schedule: Q01DX009 (ip), vehicle: saline with Tween-80
[3] = dose: 100.0 mg/kg/injection, schedule: Q04DX003 (ip), vehicle: saline with Tween-80
[4] = dose: 200.0 mg/kg/injection, schedule: Q04DX003 (ip), vehicle: saline with Tween-80
[5] = dose: 400.0 mg/kg/injection, schedule: Q04DX003 (ip), vehicle: saline with Tween-80
[6] = dose: 100.0 mg/kg/injection, schedule: Q01DX009 (ip), vehicle: Klucel (hydroxypropylcellulose) (HPC)
[7] = dose: 200.0 mg/kg/injection, schedule: Q01DX009 (ip), vehicle: Klucel (hydroxypropylcellulose) (HPC)
[8] = dose: 400.0 mg/kg/injection, schedule: Q01DX009 (ip), vehicle: Klucel (hydroxypropylcellulose) (HPC)
[9] = dose: 100.0 mg/kg/injection, schedule: Q04DX003 (ip), vehicle: Klucel (hydroxypropylcellulose) (HPC)
[10] = dose: 200.0 mg/kg/injection, schedule: Q04DX003 (ip), vehicle: Klucel (hydroxypropylcellulose) (HPC)
[11] = dose: 400.0 mg/kg/injection, schedule: Q04DX003 (ip), vehicle: Klucel (hydroxypropylcellulose) (HPC)
[12] = dose: 100.0 mg/kg/injection, schedule: Q04DX003 (ip), vehicle: saline
[13] = dose: 200.0 mg/kg/injection, schedule: Q04DX003 (ip), vehicle: saline

Measured: T/C

Cc1cc(N(CCOS(C)(=O)=O)CCOS(C)(=O)=O)ccc1C=Nc1ccc(C(=O)O)cc1
inactive: dose: 2.5 mg/kg/injection, schedule: Q04DX003 (ip), vehicle: Klucel (hydroxypropylcellulose) (HPC) 108 % of control | dose: 5.0 mg/kg/injection, schedule: Q04DX003 (ip), vehicle: Klucel (hydroxypropylcellulose) (HPC) 113 % of control | dose: 6.6 mg/kg/injection, schedule: Q04DX003 (ip), vehicle: Klucel (hydroxypropylcellulose) (HPC) 102 % of control | dose: 10.0 mg/kg/injection, schedule: Q04DX003 (ip), vehicle: Klucel (hydroxypropylcellulose) (HPC) 103 % of control | dose: 15.0 mg/kg/injection, schedule: Q04DX003 (ip), vehicle: Klucel (hydroxypropylcellulose) (HPC) 118 % of control | dose: 20.0 mg/kg/injection, schedule: Q04DX003 (ip), vehicle: Klucel (hydroxypropylcellulose) (HPC) 113 % of control | dose: 40.0 mg/kg/injection, schedule: Q04DX003 (ip), vehicle: Klucel (hydroxypropylcellulose) (HPC) 114 % of control

O=C(Nc1ccc(Cl)c(C(F)(F)F)c1)OCc1ccco1
inactive: dose: 100.0 mg/kg/injection, schedule: Q01DX009 (ip), vehicle: gum acacia 93 % of control | dose: 200.0 mg/kg/injection, schedule: Q01DX009 (ip), vehicle: gum acacia 100 % of control | dose: 400.0 mg/kg/injection, schedule: Q01DX009 (ip), vehicle: gum acacia 92 % of control

O=C(Nc1ccc(Cl)cc1)C(c1ccccc1)c1ccccc1
inactive: dose: 100.0 mg/kg/injection, schedule: Q04DX002 (ip), vehicle: saline with Tween-80 100 % of control | dose: 200.0 mg/kg/injection, schedule: Q04DX002 (ip), vehicle: saline with Tween-80 110 % of control | dose: 400.0 mg/kg/injection, schedule: Q04DX002 (ip), vehicle: saline with Tween-80 100 % of control

CCS[S+](CC)CC
inactive: [1] 98 % of control | [2] 102 % of control

CN(C)P(=O)(N(C)C)N(C)C.[Cl][Al]([Cl])[Cl]
inactive: dose: 50.0 mg/kg/injection, schedule: Q01DX009 (ip), vehicle: saline 91 % of control | dose: 100.0 mg/kg/injection, schedule: Q01DX009 (ip), vehicle: saline 88 % of control | dose: 200.0 mg/kg/injection, schedule: Q01DX009 (ip), vehicle: saline 95 % of control

Cc1c(C#N)c2nc(C(=O)c3ccc(Br)cc3)cc(-c3ccc(Br)cc3)n2c1C
inactive: dose: 50.0 mg/kg/injection, schedule: Q04DX003 (ip), vehicle: saline with Tween-80 98 % of control | [3] 111 % of control | [4] 103 % of control | [5] 106 % of control

Nc1c2ccccc2nc2ccccc12
inactive: dose: 5.0 mg/kg/injection, schedule: Q01DX009 (ip), vehicle: Klucel (hydroxypropylcellulose) (HPC) 105 % of control | dose: 10.0 mg/kg/injection, schedule: Q01DX009 (ip), vehicle: Klucel (hydroxypropylcellulose) (HPC) 98 % of control | dose: 15.0 mg/kg/injection, schedule: Q01DX009 (ip), vehicle: Klucel (hydroxypropylcellulose) (HPC) 103 % of control | [3] 86 % of control | [4] 86 % of control

O=C(c1ccccc1)c1cccnc1
inactive: [3] 101 % of control | [4] 101 % of control | [5] 104 % of control

CC(=O)N(C)c1ccc(NC(=O)Nc2ccccc2C(F)(F)F)cc1
inactive: [6] 95 % of control | [7] 93 % of control | [8] 103 % of control

CSCCSc1ncnc2nc[nH]c12
inactive: [3] 107 % of control | [4] 102 % of control | [5] 101 % of control

COc1ccc(C=O)cc1Br
inactive: [9] 102 % of control | [10] 97 % of control | [11] 95 % of control

COc1ccc(Cl)cc1NC(=O)c1ccccc1Cl
inactive: [6] 95 % of control | [7] 102 % of control | [8] 101 % of control

CC1(C)C/C(=C\c2ccccc2)C(=O)c2ccccc21
inactive: [3] 107 % of control | [4] 96 % of control | [5] 96 % of control

CN(C)CC/C(=N\N=C(N)N)c1ccccc1
inactive: dose: 15.0 mg/kg/injection, schedule: Q01DX Z (ip), vehicle: methylcellulose (MC) 96 % of control | dose: 30.0 mg/kg/injection, schedule: Q01DX Z (ip), vehicle: methylcellulose (MC) 90 % of control | dose: 30.0 mg/kg/injection, schedule: Q01DX Z (oral), vehicle: methylcellulose (MC) 89 % of control | dose: 60.0 mg/kg/injection, schedule: Q01DX Z (ip), vehicle: methylcellulose (MC) 94 % of control | dose: 60.0 mg/kg/injection, schedule: Q01DX Z (oral), vehicle: methylcellulose (MC) 91 % of control

c1ccc2cc3c(cc2c1)OCO3
inactive: dose: 100.0 mg/kg/injection, schedule: Q04DX002 (ip), vehicle: Klucel (hydroxypropylcellulose) (HPC) 110 % of control | dose: 200.0 mg/kg/injection, schedule: Q04DX002 (ip), vehicle: Klucel (hydroxypropylcellulose) (HPC) 107 % of control | dose: 400.0 mg/kg/injection, schedule: Q04DX002 (ip), vehicle: Klucel (hydroxypropylcellulose) (HPC) 98 % of control

O=C(CCl)Nc1c(Cl)cc(Cl)cc1Cl
inactive: dose: 50.0 mg/kg/injection, schedule: Q04DX003 (ip), vehicle: Klucel (hydroxypropylcellulose) (HPC) 97 % of control | dose: 100.0 mg/kg/injection, schedule: Q01DX001 (ip), vehicle: Klucel (hydroxypropylcellulose) (HPC) 103 % of control | [9] 90 % of control | dose: 200.0 mg/kg/injection, schedule: Q01DX001 (ip), vehicle: Klucel (hydroxypropylcellulose) (HPC) 98 % of control | [10] 93 % of control | dose: 400.0 mg/kg/injection, schedule: Q01DX001 (ip), vehicle: Klucel (hydroxypropylcellulose) (HPC) 103 % of control

NC(=S)NCCO
inactive: [12] 105 % of control | [13] 98 % of control | dose: 400.0 mg/kg/injection, schedule: Q04DX003 (ip), vehicle: saline 100 % of control

CNCc1ccccc1Cc1ccccc1
inactive: dose: 75.0 mg/kg/injection, schedule: Q01DX001 (ip), vehicle: saline 100 % of control | dose: 150.0 mg/kg/injection, schedule: Q01DX001 (ip), vehicle: saline 97 % of control | dose: 300.0 mg/kg/injection, schedule: Q01DX001 (ip), vehicle: saline 95 % of control

Nc1nc(-c2ccccc2)nc2nonc12
inactive: [3] 105 % of control | [4] 99 % of control | [5] 97 % of control

O=C(O)CC(NS(=O)(=O)Cc1ccccc1)C(=O)O (configuration not stated)
inactive: dose: 100.0 mg/kg/injection, schedule: Q04DX003 (ip), vehicle: other 94 % of control | dose: 200.0 mg/kg/injection, schedule: Q04DX003 (ip), vehicle: other 92 % of control | dose: 400.0 mg/kg/injection, schedule: Q04DX003 (ip), vehicle: other 92 % of control

Nc1nc(N)c2cc(NCc3ccc(Br)cc3)ccc2n1
inactive: [1] 103 % of control | [2] 100 % of control | dose: 25.0 mg/kg/injection, schedule: Q04DX003 (ip), vehicle: saline 96 % of control

COc1cccc(NC2=CC(=O)C(=O)c3ccccc32)c1
inactive: dose: 100.0 mg/kg/injection, schedule: Q01DX001 (ip), vehicle: other 88 % of control | dose: 200.0 mg/kg/injection, schedule: Q01DX001 (ip), vehicle: other 92 % of control | dose: 400.0 mg/kg/injection, schedule: Q01DX001 (ip), vehicle: other 101 % of control

CC12CCc3occc3C1CCC13CC(CO)C(O)(CCC12)C3 (configuration not stated)
inactive: [12] 94 % of control | [13] 93 % of control

CC(=O)OCc1ccc(Cl)c(Cl)c1
inactive: dose: 50.0 mg/kg/injection, schedule: Q01DX009 (ip), vehicle: saline sonified 100 % of control | dose: 100.0 mg/kg/injection, schedule: Q01DX009 (ip), vehicle: saline sonified 100 % of control | dose: 100.0 mg/kg/injection, schedule: Q04DX003 (ip), vehicle: saline sonified 101 % of control | dose: 200.0 mg/kg/injection, schedule: Q01DX009 (ip), vehicle: saline sonified 97 % of control | dose: 200.0 mg/kg/injection, schedule: Q04DX003 (ip), vehicle: saline sonified 107 % of control | dose: 400.0 mg/kg/injection, schedule: Q04DX003 (ip), vehicle: saline sonified 106 % of control

C(=Nc1ccc2c(c1)Cc1ccccc1-2)c1ccccc1
inactive: [6] 104 % of control | [9] 100 % of control | [7] 96 % of control | [10] 95 % of control | [11] 103 % of control

Cn1c(=O)c(=O)n(C)c2cc(Cl)c(Cl)cc21
inactive: dose: 100.0 mg/kg/injection, schedule: Q01DX001 (ip), vehicle: carboxymethylcellulose (CMC) 94 % of control | dose: 200.0 mg/kg/injection, schedule: Q01DX001 (ip), vehicle: carboxymethylcellulose (CMC) 105 % of control
